In patent US20210269479A1, “USE OF CY[…] FOR TREATING CANCER” (Hepion Pharmaceuticals, Inc., priority 2020, published 2021):

System: HepG2 hepatocellular carcinoma cells
Conditions: 4 days, strongest with 0.37 μM daunorubicin and CRV431 0.25-4 μM
Experimental: HepG2 hepatocellular carcinoma cell lines and Huh7 hepatocellular carcinoma cell lines were plated in 96 well plates at subconfluent densities. The chemotherapy compound, daunorubicin, and CRV431 were applied alone or in combination at the indicated concentrations in duplicate wells for each treatment. After 4 days incubation, cell viability was assessed with Cell Titer Glo 2.0.

## CC[C@@H]1NC(=O)[C@H]([C@H](O)[C@H](C)CCCCCCNC(C)=O)N(C)C(=O)[C@H](C(C)C)N(C)C(=O)[C@H](CC(C)C)N(C)C(=O)[C@H](CC(C)C)N(C)C(=O)[C@@H](C)NC(=O)[C@H](C)NC(=O)[C@H](CC(C)C)N(C)C(=O)[C@H](C(C)C)NC(=O)[C@H](CC(C)C)N(C)C(=O)[C@@H](C)N(C)C1=O [CRV431]
  effect on cytotoxicity of daunorubicin: increased the cytotoxicity of daunorubicin
